Where “and” joins values, the source holds several entries; their conditions need not be identical. Identical values can stand only once. Entries after “also recorded” stand apart in the source; their conditions may differ. Like-named read-outs stand apart in the source and are kept apart here.
How the values were obtained:
[1] = biological target: T1, α4β3γ2 GABAA receptor isoform (Homo sapiens, UniProt P18507+P28472+P48169); assay: Whole-cell patch clamp, transfected HEK-293T cells; format: cell-based, rat or human
T1 construct: expressed in transfected cells; host or cells: HEK-293T, transient transfection
Procedure: The addition of GABA to […] activates the recombinant expressed GABAA receptors, creating an ion movement through the ion channel in the GABAA receptor. The electrical current generated by the movement of chloride ions into the cells can be quantified.
HEK-293T cells were transiently transfected with rat or human GABAA receptor subunits. Whole-cell patch clamp recording was performed at −50 mV unless otherwise indicated. Test compounds was diluted from a freshly made stock in DMSO, GABA was prepared from a frozen stock. For each experiment GABA or GABA+a test compound was applied for 5 seconds, and the electrical current generated by the movement of chloride ions into the cells was measured and recorded as a trace of current versus time.
Compounds described herein (e.g., NTP-2014) were tested at high and low GABA concentrations against multiple GABAA receptor isoforms (e.g., α1β3γ2, α2β3 γ2, α3β3γ2, α3β3γ2, α4β3γ2, α5β3γ2, α6β3γ2). […] NTP-2014 inhibits the currents in the parasynaptic α4 GABAA receptor isoform in GABAergic interneurons. […]

[2] = Diuresis in rat (urine volume, sodium and potassium excretion); format: in vivo; conditions: for Diuresis as measured by increased urine output and Na+/K+ excretion: rat, through 8 hours post-dose
Procedure: (§1) The animals were fasted overnight prior to dosing and had no access to drinking water prior to any pretreatment. Food and water were withheld through the terminal sample collection or for the first 6 hours of blood sample collection, where applicable. Prior to test article administration all animals were pretreated with a single IP dose of PBx. At approximately 5 to 6 minutes prior to dosing all animals received a single oral (PO) gavage dose of 0.9% Sodium Chloride for Injection, USP, at a dose volume of 15 mL/kg. The vehicle, DMSO, and the test articles, NTP-2024 and NTP-2006, were administered via a single IP dose at a dose volume of 1 mL/kg. Cumulative urine volume, sodium excretion, and potassium excretion graphs are illustrated in FIGS. 27, 28, and 29.
as §1, with “Animals” for “The animals”, “PBX.” for “PBx.”, “mL/g.” for “mL/kg.”, “compounds (e.g., NTP-2014)” for “articles, NTP-2024 and NTP-2006,”, “mL/kg.” for “mL/kg. Cumulative urine volume, sodium excretion, and potassium excretion graphs are illustrated in FIGS. 27, 28, and 29.”
as §1, with “Animals” for “The animals”, “0.15” for “15”, “FIG. 27 illustrates cumulative” for “Cumulative”, “volume.” for “volume, sodium excretion, and potassium excretion graphs are illustrated in FIGS. 27, 28, and 29.”
as §1, with “PBX.” for “PBx.”, “FIG. 28 illustrates cumulative” for “Cumulative urine volume,”, “excretion.” for “excretion, and potassium excretion graphs are illustrated in FIGS. 27, 28, and 29.”
as §1, with “PBX.” for “PBx.”, “FIG. 29 illustrates cumulative” for “Cumulative urine volume, sodium excretion, and”, “excretion.” for “excretion graphs are illustrated in FIGS. 27, 28, and 29.”

[3] = Blood levels in rat following IP administration; format: in vivo; conditions: for Concentration of NTP-2000 (bumetanide) in rat blood: after NTP-2024 100 mg/kg IP
[4] = test system: primate; assay: Acute primate seizure models; conditions: in vivo
From the text: FIG. 13 depicts epileptiform spikes and bursts generated using software for the automatic quantification epileptiform activity. FIG. 13A depicts after-discharge activity that was elicited by 4 seconds of electrical stimulation to primate sensory cortex. The software developed by Haglund and Hochman (2007) finds the envelope around a burst of spikes and calculates the duration of the burst, the number of spikes within the burst, and the average spike amplitude of all spikes comprising the burst.
FIG. 13B depicts a typical spike generated by an acute bicuculline focus in primate motor cortex. The bicuculline model generates epileptiform activity that is similar to spontaneous interictal spiking in human subjects. Analysis of the data by the software identifies the time of occurrence of each spike and its peak-to-peak amplitude. This software can automatically process entire data sets consisting of hours of recorded data from multiple traces and generate an output of the data. Statistical analysis of data sets from multiple experiments can then be used to analyze the effects of various treatments (e.g., compounds that suppress epliptiform activity). See Haglund and Hochman (2007) “Imaging of Intrinsic Optical Signals in Primate Cortex during Epileptiform Activity.” Epilepsia 48(Suppl. 4): 65-74; See also Haglund and Hochman (Feb. 23, 2005) J. Neurophysiol. 94: 907-918.

[5] = Solubility in dosing vehicle (0.2% HPMC in physiological saline); format: physicochemical; conditions: NTP-2024: 180 mg/kg or 18 mg/ml; NTP-2026: 100 mg/kg or 10 mg/ml

T1 sequence (P48169 36-554): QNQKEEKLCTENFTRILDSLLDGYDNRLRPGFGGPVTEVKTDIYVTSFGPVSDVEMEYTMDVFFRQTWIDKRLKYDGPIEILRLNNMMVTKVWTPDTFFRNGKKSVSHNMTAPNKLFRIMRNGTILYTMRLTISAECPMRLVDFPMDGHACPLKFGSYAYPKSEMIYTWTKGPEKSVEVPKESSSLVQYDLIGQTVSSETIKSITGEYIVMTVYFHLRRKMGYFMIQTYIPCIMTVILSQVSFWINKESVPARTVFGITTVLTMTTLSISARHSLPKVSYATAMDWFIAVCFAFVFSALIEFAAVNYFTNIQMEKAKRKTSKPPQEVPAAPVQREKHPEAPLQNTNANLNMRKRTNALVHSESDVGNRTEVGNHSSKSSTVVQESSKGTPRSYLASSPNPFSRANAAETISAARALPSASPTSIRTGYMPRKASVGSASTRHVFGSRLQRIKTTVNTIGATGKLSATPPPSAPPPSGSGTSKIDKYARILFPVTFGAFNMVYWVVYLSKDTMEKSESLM
T1 sequence (P28472 26-473): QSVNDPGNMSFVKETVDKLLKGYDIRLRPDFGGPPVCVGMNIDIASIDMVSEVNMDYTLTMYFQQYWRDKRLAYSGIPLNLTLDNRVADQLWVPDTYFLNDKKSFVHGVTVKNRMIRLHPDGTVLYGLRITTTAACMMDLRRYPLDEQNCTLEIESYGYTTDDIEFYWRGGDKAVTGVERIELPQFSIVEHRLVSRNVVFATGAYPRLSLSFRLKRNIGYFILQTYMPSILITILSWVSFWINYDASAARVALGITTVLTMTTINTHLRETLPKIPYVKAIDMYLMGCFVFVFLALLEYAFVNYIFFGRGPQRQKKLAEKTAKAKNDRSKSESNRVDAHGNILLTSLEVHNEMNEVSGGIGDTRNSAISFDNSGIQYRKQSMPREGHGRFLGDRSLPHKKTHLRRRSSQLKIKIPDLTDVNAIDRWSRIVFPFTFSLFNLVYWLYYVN
T1 sequence (P18507 40-475): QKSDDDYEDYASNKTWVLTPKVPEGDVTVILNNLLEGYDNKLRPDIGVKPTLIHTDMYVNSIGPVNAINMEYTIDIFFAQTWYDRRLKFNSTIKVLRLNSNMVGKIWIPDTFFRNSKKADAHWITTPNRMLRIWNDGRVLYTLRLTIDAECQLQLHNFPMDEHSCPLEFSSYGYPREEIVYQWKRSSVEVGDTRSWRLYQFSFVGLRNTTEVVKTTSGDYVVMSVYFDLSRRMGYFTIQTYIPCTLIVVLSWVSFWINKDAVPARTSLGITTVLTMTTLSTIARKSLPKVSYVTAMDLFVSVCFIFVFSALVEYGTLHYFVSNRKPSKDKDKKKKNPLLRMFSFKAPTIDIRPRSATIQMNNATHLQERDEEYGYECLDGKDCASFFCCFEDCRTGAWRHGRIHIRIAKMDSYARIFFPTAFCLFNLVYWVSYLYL

CCCCN(CCCC)c1cc(C(=O)O)cc(S(N)(=O)=O)c1Oc1ccccc1 [NTP-2014, 3-Aminosulfonyl-5-N,N-dibutylamino-4-phenoxybenzoic acid]
IC50 ([1]; 100 μM GABA (FIG. 42), read-out: IC50, inhibition of α4β3γ2 GABAA receptor isoform): 16 µM
Effect on currents, α4 GABAA receptor isoform ([1]; 1, 10, 100 μM GABA): inhibiting currents; also recorded: inhibited by NTP-2014 at higher GABA concentrations, but unaffected at lower GABA concentrations; also recorded: inhibition of currents
EC50 ([1]; FIG. 41C, read-out: EC50 in α4 containing GABAA receptor isoforms): 20.2 µM
IC50 ([1]; read-out: IC50, receptors containing the α4 subunit): 10 to 30 µM
Urine output, sodium excretion and potassium excretion (FIG. 33) ([2]; NTP-2014 at 10, 50 or 100 mg/kg, PBx pretreated): does not differ appreciably from the vehicle control; also recorded: does not increase; also recorded: did not increase
Diuresis as measured by increased urine output and Na+/K+ excretion [2]: No diuresis as measured by increased urine output and Na+/K+

CCCCNc1cc(C(=O)O)cc(S(N)(=O)=O)c1Oc1ccccc1 [Bumetanide, reference compound]
Effect of inhibitor pre-treatment on exposures and half-life ([3]; rats): with inhibitor increased bumetanide exposures and half-life;
Effect on α4β3γ2 GABAA receptor isoform ([1]; up to a concentration of 100 μM, 100 μM GABA): no effect; also recorded: no-effect
Suppression of epileptiform activity [4]: significantly more than furosemide
Excretion of urine, sodium and potassium (FIG. 33) ([2]; bumetanide PO 30 mg/kg + PBx): substantial excretion
Diuresis in rat ([2]; pre-treatment with inhibitor): diuresis evident

CCCCNc1cc(C(=O)N(C)CCCN(C)C)cc(S(N)(=O)=O)c1Oc1ccccc1 [NTP-2026, N-(3-(Dimethylamino)propyl)-N-methyl 3-Aminosulfonyl-5-N-butylamino-4-phenoxybenzamide]
Diuresis as measured by increased urine output and Na+/K+ excretion [2]: No diuresis as measured by increased urine output and Na+/K+
Solubility issues at the highest dose tested [5]: Significant solubility issues

CCCCNc1cc(C(=O)NN2CCOCC2)cc(S(N)(=O)=O)c1Oc1ccccc1 [NTP-2024, N-Morpholinyl 3-Aminosulfonyl-5-N-butylamino-4-phenoxybenzamide]
Concentration of NTP-2024 in rat blood ([3]; NTP-2024 100 mg/kg IP, PBx pretreated, 15 m): 3939.86 ng/mL and 4358.32 ng/mL and 6418.34 ng/mL
Concentration of NTP-2000 (bumetanide) in rat blood ([3]; PBx pretreated, 5 m): 4.155 ng/mL and 3.804 ng/mL and 3.493 ng/mL
Concentration of NTP-2000 (bumetanide) in rat blood ([3]; PBx pretreated, 30 m): 13.3456 ng/mL and 10.0076 ng/mL and 8.433 ng/mL
Concentration of NTP-2000 (bumetanide) in rat blood ([3]; PBx pretreated, 1 h): 12.2513 ng/mL and 9.158 ng/mL and 8.065 ng/mL
Concentration of NTP-2000 (bumetanide) in rat blood ([3]; PBx pretreated, 2 h): 15.0994 ng/mL and 8.16 ng/mL and 8.949 ng/mL
Degradation to bumetanide in the blood ([3]; i.p., rats): does not readily degrade to bumetanide
Concentrations in blood and in brain tissue ([3]; rats pretreated with inhibitor): Rats pretreated with inhibitor demonstrated high concentrations
Suppression of epileptiform activity [4]: efficacious in suppressing epileptiform activity
Solubility issues at the highest dose tested [5]: Mild solubility issues
